We go through 2 compounds from patent publication US8283373B2, “Inhibitors of cytosolic phospholipase A2” (Pfizer Inc., priority 2005, dated 2012).

In assay [1] the target is T1, cPLA2α (Homo sapiens, UniProt P47712).
T1 sequence (P47712 1-749): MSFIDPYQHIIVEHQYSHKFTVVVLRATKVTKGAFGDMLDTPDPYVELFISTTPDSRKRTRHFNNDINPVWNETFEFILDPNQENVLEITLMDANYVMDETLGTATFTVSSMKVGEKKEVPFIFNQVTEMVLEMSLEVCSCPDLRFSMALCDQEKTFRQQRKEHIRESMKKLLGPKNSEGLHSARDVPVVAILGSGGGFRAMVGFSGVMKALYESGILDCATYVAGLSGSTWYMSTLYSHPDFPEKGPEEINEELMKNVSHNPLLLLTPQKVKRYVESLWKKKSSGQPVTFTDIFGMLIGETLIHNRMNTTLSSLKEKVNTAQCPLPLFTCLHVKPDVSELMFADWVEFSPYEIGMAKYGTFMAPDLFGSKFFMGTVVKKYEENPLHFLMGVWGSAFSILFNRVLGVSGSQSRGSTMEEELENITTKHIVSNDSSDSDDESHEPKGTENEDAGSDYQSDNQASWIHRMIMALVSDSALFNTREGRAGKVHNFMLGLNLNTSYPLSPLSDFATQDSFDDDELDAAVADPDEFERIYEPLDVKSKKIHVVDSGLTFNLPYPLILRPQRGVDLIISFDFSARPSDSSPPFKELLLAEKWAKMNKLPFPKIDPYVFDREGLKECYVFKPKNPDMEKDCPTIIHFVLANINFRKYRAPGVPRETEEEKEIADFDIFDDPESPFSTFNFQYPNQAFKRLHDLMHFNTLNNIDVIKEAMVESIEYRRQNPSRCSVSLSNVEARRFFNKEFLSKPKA
Briefly: GLU Micelle Assay. The format is biochemical. The procedure:
The assay was carried in a 96-well format using a fluorescent plate reader with a 355 nm excitation filter and a 460 nm emission filter (Lab Systems Fluoroscan II, Helsinki, Finland). The assay buffer contained 940 μM Triton X-100, 50 mM Hepes pH 7.4, 0.3 mM EDTA, 1 mM CaCl2 and 300 mM KCl. DTPC (1,2-O-tetradecyl-sn-glycero-3-phosphocholine, Avanti) at a final concentration of 120 μM was added the day of the experiment and GLU (7-Hydroxycoumarinyl-γ-linolenate, Biomol Research Lab, Inc.) at a final concentration of 90 μM was added immediately prior to each assay.
Compounds (10 μL) dissolved in DMSO were placed in duplicate wells of a black 96-well plate. Wells corresponding to the positive and negative controls contained DMSO without inhibitors. Just prior to the experiment, 200 μL assay buffer containing 90 μM GLU and 120 μM DTPC was added to all wells in the assay plate. Assay buffer (50 μL) was added to the negative, and 50 μL cPLA2α solution ([…] in assay buffer) was added to all other wells to initiate the reaction. The final concentration of enzyme was 1 μg/ml. The content of each well was mixed gently during the addition of the enzyme, and the plate was rapidly transferred to the fluorescent plate reader. The increase in fluorescence was read every 4 min for 84 min. The slope of the resulting line was determined and the inhibition was calculated using the equation below: Percent Inhibition=[1−(slope with inhibitor−slope negative control)/(slope positive control−slope negative control)]×100 Rat Whole Blood Assay

In assay [2] the test system is TXB2. Briefly: Rat Whole Blood Assay (A23187-stimulated TXB2). The format is cell-based. The conditions noted are these: Rattus norvegicus; A23187 5 μM. The method, then:
Fresh blood was collected in heparinized tubes by cardiac puncture of male Sprague-Dawley rats. Aliquots of blood (0.6 mL) were incubated with either 6 μL solvent (DMSO), or 6 μL of test compounds at various concentrations for 15 minutes at 37° C. This was followed by incubation of the blood with 6 μL of calcium ionophore, A23187 (Sigma C-7522) diluted in DMSO for 10 min at 37° C. The final concentration of A23187 was 5 μM. DMSO (6 μL) was added in the unstimulated controls. The reactions were stopped by mixing 60 μL cold EDTA to give a final concentration of 20 mM. The blood was centrifuged at 6,500 rpm for 10 min on a microcentrifuge to obtain plasma. A 70 μL aliquot of plasma was mixed with 400 μL cold methanol for protein precipitation. After incubation at −80° C. for 30 min, the supernatant was obtained by centrifuging at 6,500 rpm for 10 min, and was assayed for TXB2 according to the manufacturer's procedure (Assay Designs, Inc.'s ELISA kit #900-002).

Assay [3] deals with primary cerebellar granule neurons. Briefly: Oxygen-glucose deprivation (OGD) in cultured cerebellar granule neurons. The format is cell-based, rat. As to conditions: for percent cell death (lactate dehydrogenase release), Avg.: OGD 2 hours, control 14, OGD 51. The method, then: Primary cerebellar granule neurons were isolated from P5-8 rat pups. Briefly, cerebelli were collected and pooled in ice-cold phosphate buffer saline (PBS) without Ca^2+ and Mg^2+. The tissue was finely chopped and transferred to an enzymatic dissociation media containing 20 IU/ml papain in Earle's balanced salt solution (Worthington Biochemical, Freehold, N.J.) and incubated for 30 minutes at 37° C. After enzymatic dissociation, the papain solution was aspirated and the tissue mechanically triturated with a fire-polished Pasteur pipette in complete media [Neurobasal Medium with B-27 supplement (Gibco, Grand Island, N.Y.), penicillin/streptomycin, aphidicolin, glutamate, potassium chloride] containing 2,000 IU/ml DNase and 10 mg/ml ovomucoid protease inhibitor. Single-cell suspensions in complete media were plated on pre-coated poly-L-ornithine/laminin 24-well plates (Becton-Dickinson, Bedford, Mass.) at a density of
5.0×10^5 cells/well. Cells were maintained for two weeks prior to experimentation.
Cultures were treated with Compound A at various concentrations, 60 minutes before OGD. Media was removed and replaced with deoxygenated buffer in an anaerobic chamber (80% nitrogen, 10% hydrogen, 10% carbon dioxide gas mixture). Fresh Compound A, Example 34 or Example 41 was added to the cultures and maintained in the anaerobic chamber for 2 hours. At the end of the incubation, fresh media was exchanged and fresh Compound A was added. Cultures were maintained for an additional 24 hours in a normoxic incubator. Cell death was determined by measuring lactate dehydrogenase release into the media 24 hours later (Roche Biochemicals). In the table below, values are shown for the control, OGD, various concentrations of Compound A, and MK801, a NMDA receptor antagonist, which is a positive control.

In general, IC50 refers to the concentration needed to halve the response being measured. High values mean a need for much substance, low ones inhibition by little substance. In the case of `O=C(O)c1ccc(CCCc2c(CCNS(=O)(=O)Cc3ccccc3-c3cccc4cccnc34)n(C(c3ccccc3)c3ccccc3)c3ccc(Cl)cc23)cc1` [Example 34, 4-{3-[5-chloro-1-(diphenylmethyl)-2-(2-{[(2-quinolin-8-ylbenzyl)sulfonyl]amino}ethyl)-1H-indol-3-yl]propyl}benzoic acid], the IC50 was 16 nM in assay [1] and 30 nM in assay [2]. For the same compound, in assay [3], the “protection of cultured neurons from OGD-induced cell death” value is “effective in protecting cultured neurons from OGD-induced cell death”. The “percent cell death (lactate dehydrogenase release), Avg.” value in assay [3] (0.1 μM) was determined as 35%; in assay [3] (0.3 μM) it was 28%; in assay [3] (1 μM), 21%; in assay [3] (3 μM), 18%.

As to `O=C(O)c1ccc(CCCc2c(CCNS(=O)(=O)Cc3ccccc3-c3cccc4ncccc34)n(C(c3ccccc3)c3ccccc3)c3ccc(Cl)cc23)cc1` [Example 41, 4-{3-[5-chloro-1-(diphenylmethyl)-2-(2-{[(2-quinolin-5-ylbenzyl)sulfonyl]amino}ethyl)-1H-indol-3-yl]propyl}benzoic acid], half-maximal inhibition in assay [1] (IC50) was put at 22 nM. In addition, the “protection of cultured neurons from OGD-induced cell death” value in assay [3] is “effective in protecting cultured neurons from OGD-induced cell death”. In addition, the “percent cell death (lactate dehydrogenase release), Avg.” value in assay [3] (0.1 μM) is 40%; in assay [3] (0.3 μM) it was 33%; in assay [3] (1 μM) it was 30%; in assay [3] (3 μM) it was 24%.
